Test results taken from BigSolDB 2.1.

CC(C)[C@H](NC(=O)OCC1c2ccccc2-c2ccccc21)C(=O)O
solubility (mole fraction)
Conditions	283.15 K	288.15 K	293.15 K	298.15 K	303.15 K	308.15 K	313.15 K	318.15 K	323.15 K
in 2-butanone	0.0403	0.0448	0.0509	0.057	0.0632	0.0699	0.0793	0.0902	0.102
in acetone	0.0449	0.0504	0.0568	0.0627	0.0707	0.0792	0.0915	0.104	0.121
in acetonitrile	0.00264	0.00327	0.00399	0.00477	0.00577	0.00703	0.00867	0.0105	0.0128
in dimethyl carbonate	0.0073	0.00766	0.00901	0.0108	0.0131	0.016	0.0196	0.0235	0.0294
in ethanol	0.0177	0.0243	0.0261	0.0312	0.0373	0.0462	0.057	0.0714	0.0877
in isobutanol	0.00967	0.0112	0.0127	0.0152	0.0186	0.0236	0.0296	0.0366	0.0541
in isopentanol	0.0103	0.0129	0.0159	0.0192	0.0231	0.0286	0.0351	0.0429	0.0552
in isopropanol	0.0105	0.0133	0.0161	0.0204	0.0271	0.0352	0.0448	0.0533	0.071
in methanol	0.0238	0.0259	0.0321	0.0396	0.0468	0.0571	0.0694	0.0846	0.0985
in n-butanol	0.0155	0.019	0.0216	0.0244	0.0287	0.0351	0.0434	0.0536	0.0728
in n-butyl acetate	0.0143	0.0162	0.0184	0.0209	0.0234	0.0273	0.0314	0.0362	0.0417
in n-pentanol	0.016	0.0172	0.0199	0.0233	0.0281	0.0344	0.0417	0.0495	0.0582
in n-propanol	0.0141	0.0169	0.0199	0.0227	0.0319	0.0398	0.0481	0.057	0.0742
in sec-butanol	0.016	0.0174	0.0222	0.0275	0.0349	0.0435	0.0549	0.0653	0.0801
